pIC50: −log10 of the molar value.

One experiment deals with IL-1β production in PMA-differentiated THP-1 cells. Put plainly: IL-1β production in PMA-differentiated THP-1 cells stimulated with gramicidin (hTHP-1 assay, 2% fetal bovine serum; Procedures 1-3). The format is cell-based, human. Particulars: Homo sapiens, THP-1, hTHP-1 assay containing 2% fetal bovine serum, Table B2, class symbols; read-out: IC50. The gist of the method: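 PMA-primed THP-1 cells (20 ng/ml PMA, 16-18 h) in RPMI with 2% FBS were pre-incubated with compounds for 1 h, from 100 μM downward in 3-fold steps (0.37% DMSO final), then stimulated with 5 μM gramicidin for 2 h. IL-1β in the supernatant was quantified by HTRF.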
For the molecule `CN(C)C(c1ccc(S(N)(=O)=NC(=O)Nc2c3c(cc4c2CCC4)CCC3)cc1)C(F)(F)F` (single isomer, unassigned) [Example 664], the negative-log IC50 (pIC50) was 6.00 to 6.70.

Staying with this experiment, now noted: Homo sapiens, THP-1, hTHP-1 assay containing 2% fetal bovine serum, Table B2, given as bound; read-out: IC50.
`CN(C)C(c1ccc(S(N)(=O)=NC(=O)Nc2c3c(cc4c2CCC4)CCC3)cc1)C(F)(F)F` (single isomer, unassigned) [Example 663]: the pIC50 was < 4.52.

The same experiment, now with this note: hTHP-1 assay containing 2% fetal bovine serum, Table B2, class symbols; read-out: IC50.
As for `CC(C)(O)c1cnc(S(N)(=O)=NC(=O)Nc2c3c(cc4c2CCC4O)CCC3)s1` (single isomer, unassigned) [Example 657, (R,R) or (R,S)-N′-((1-hydroxy-1,2,3,5,6,7-hexahydro-5-indacen-4-yl)carbamoyl)-5-(2-hydroxypropan-2-yl)thiazole-2-sulfonimidamide], the pIC50 was 5.30 to 6.00.

Consider `CC(C)(O)c1cnc(S(N)(=O)=NC(=O)Nc2c3c(cc4c2CCC4O)CCC3)s1` (single isomer, unassigned) [Example 658, (R,S) or (R,R)-N′-((1-hydroxy-1,2,3,5,6,7-hexahydro-5-indacen-4-yl)carbamoyl)-5-(2-hydroxypropan-2-yl)thiazole-2-sulfonimidamide], for which the pIC50 is 4.52 to 5.30. Regarding `CN(C)C(c1ccc(S(N)(=O)=NC(=O)Nc2c3c(cc4c2CCC4)CCC3)cc1)C1CC1` (single isomer, unassigned) [Example 659], the pIC50 is 4.52 to 5.30. Still for that read-out and setting: the result for `CN(C)C(c1ccc(S(N)(=O)=NC(=O)Nc2c3c(cc4c2CCC4)CCC3)cc1)C1CC1` (single isomer, unassigned) [Example 660] reads 6.00 to 6.70. Consider `CN(C)C(c1ccc(S(N)(=O)=NC(=O)Nc2c3c(cc4c2CCC4)CCC3)cc1)C1CC1` (single isomer, unassigned) [Example 661], for which the negative-log IC50 (pIC50) is 6.00 to 6.70. As for `CN(C)C(c1ccc(S(N)(=O)=NC(=O)Nc2c3c(cc4c2CCC4)CCC3)cc1)C1CC1` (single isomer, unassigned) [Example 662], the pIC50 was 6.00 to 6.70.

Turning to `CN(C)C(c1ccc(S(N)(=O)=NC(=O)Nc2c3c(cc4c2CCC4)CCC3)cc1)C(F)(F)F` (single isomer, unassigned) [Example 667, (S,R) or (R,R)-4-(1-(dimethylamino)-2,2,2-trifluoroethyl)-N′-((1,2,3,5,6,7-hexahydro-s-indacen-4-yl)carbamoyl) benzenesulfonimidamide], the pIC50 was 6.00 to 6.70. With `CN(C)[C@H](c1ccc([S@](N)(=O)=NC(=O)Nc2c3c(cc4c2CCC4)CCC3)cc1)C(F)(F)F` (single isomer, unassigned) [Example 668, (R,R) or (S,R)-4-(1-(dimethylamino)-2,2,2-trifluoroethyl)-N′-((1,2,3,5,6,7-hexahydro-s-indacen-4-yl)carbamoyl) benzenesulfonimidamide], the pIC50 is 5.30 to 6.00. Consider `Cc1c(C2CC2)cc2c(c1NC(=O)N=S(N)(=O)c1sc(C(C)(C)O)cc1F)CCC2` (single isomer, unassigned) [Example 685, (R) or (S)-N′-((6-cyclopropyl-5-methyl-2,3-dihydro-1H-inden-4-yl)carbamoyl)-3-fluoro-5-(2-hydroxypropan-2-yl)thiophene-2-sulfonimidamide], for which the pIC50 is 7.40 to 8.10. Consider `Cc1c(C2CC2)cc2c(c1NC(=O)N=S(N)(=O)c1sc(C(C)(C)O)cc1F)CCC2` (single isomer, unassigned) [Example 686, (S) or (R)-N′-((6-cyclopropyl-5-methyl-2,3-dihydro-1H-inden-4-yl)carbamoyl)-3-fluoro-5-(2-hydroxypropan-2-yl)thiophene-2-sulfonimidamide], for which the pIC50 was 5.30 to 6.00.

Turning to `CN1CCc2sc(S(N)(=O)=NC(=O)Nc3c4c(cc5c3CCC5)CCC4)cc2C1` (single isomer, unassigned) [Example 687, (R) or (S)-N′-((1,2,3,5,6,7-hexahydro-s-indacen-4-yl)carbamoyl)-5-methyl-4,5,6,7-tetrahydrothieno [3,2-c]pyridine-2-sulfonimidamide], the pIC50 is 6.70 to 7.40.

`CN1CCc2sc(S(N)(=O)=NC(=O)Nc3c4c(cc5c3CCC5)CCC4)cc2C1` (single isomer, unassigned) [Example 688, (S) or (R)-N′-((1,2,3,5,6,7-hexahydro-s-indacen-4-yl)carbamoyl)-5-methyl-4,5,6,7-tetrahydrothieno [3,2-c]pyridine-2-sulfonimidamide]: the pIC50 was 5.30 to 6.00.

Turning to `CNCc1csc(S(N)(=O)=NC(=O)Nc2c3c(cc4c2CCC4)CCC3)c1` (single isomer, unassigned) [Example 691, (R) or (S)-N′-((1,2,3,5,6,7-hexahydro-s-indacen-4-yl)carbamoyl)-4-((methylamino)methyl)thiophene-2-sulfonimidamide], the pIC50 is 6.70 to 7.40.

As for `CNCc1csc(S(N)(=O)=NC(=O)Nc2c3c(cc4c2CCC4)CCC3)c1` (single isomer, unassigned) [Example 692, (S) or (R)-N′-((1,2,3,5,6,7-hexahydro-s-indacen-4-yl)carbamoyl)-4-((methylamino)methyl)thiophene-2-sulfonimidamide], the pIC50 was 5.30 to 6.00. Regarding `NS(=O)(=NC(=O)Nc1c2c(cc3c1CCC3)CCC2)c1cc2c(s1)COCC2` (single isomer, unassigned) [Example 693, (R) or (S)-N′-((1,2,3,5,6,7-hexahydro-s-indacen-4-yl)carbamoyl)-4,7-dihydro-5H-thieno[2,3-c]pyran-2-sulfonimidamide], the pIC50 was 6.00 to 6.70. The same measure, in the same setting: to `NS(=O)(=NC(=O)Nc1c2c(cc3c1CCC3)CCC2)c1cc2c(s1)COCC2` (single isomer, unassigned) [Example 694, (S) or (R)-N′-((1,2,3,5,6,7-hexahydro-s-indacen-4-yl)carbamoyl)-4,7-dihydro-5H-thieno[2,3-c]pyran-2-sulfonimidamide] belongs 4.52 to 5.30; to `CO[C@H]1COc2c(S(N)(=O)=NC(=O)Nc3c4c(cc5c3CCC5)CCC4)cnn2C1` (single isomer, unassigned) [Example 695, (R) or (S)-(6R)-N′-((1,2,3,5,6,7-hexahydro-s-indacen-4-yl)carbamoyl)-6-methoxy-6,7-dihydro-5H-pyrazolo[5,1-b][1,3]oxazine-3-sulfonimidamide], 6.70 to 7.40; to `CO[C@H]1COc2c(S(N)(=O)=NC(=O)Nc3c4c(cc5c3CCC5)CCC4)cnn2C1` (single isomer, unassigned) [Example 696, (S) or (R)-(6R)-N′-((1,2,3,5,6,7-hexahydro-s-indacen-4-yl)carbamoyl)-6-methoxy-6,7-dihydro-5H-pyrazolo[5,1-b][1,3]oxazine-3-sulfonimidamide], 6.00 to 6.70.

Staying with this experiment, now noted: hTHP-1 assay containing 2% fetal bovine serum, Table B2, given as bound; read-out: IC50.
Take `CN(C)C(c1ccc(S(N)(=O)=NC(=O)Nc2c3c(cc4c2CCC4)CCC3)cc1)C(F)(F)F` (single isomer, unassigned) [Example 665, (S,S) or (R,S)-4-(1-(dimethylamino)-2,2,2-trifluoroethyl)-N′-((1,2,3,5,6,7-hexahydro-s-indacen-4-yl)carbamoyl) benzenesulfonimidamide]: the pIC50 was < 4.52. For the molecule `CN(C)C(c1ccc(S(N)(=O)=NC(=O)Nc2c3c(cc4c2CCC4)CCC3)cc1)C(F)(F)F` (single isomer, unassigned) [Example 666, (R,S) or (S,S)-4-(1-(dimethylamino)-2,2,2-trifluoroethyl)-N′-((1,2,3,5,6,7-hexahydro-s-indacen-4-yl)carbamoyl) benzenesulfonimidamide], the pIC50 is < 4.52.
